Measured values: patent publication US20060183778A1, “Osteogenesis-promotion enhancer and method of screening the same” (priority 2003, published 2006)

Experiments:
Type in all cases: cell-based
C2C12 cells [1] = experiment: Test Example 1: bone differentiation of C2C12 cells, alkaline phosphatase (ALP) staining and ALP activity; details: 9 days
Procedure: After the respective cells were cultured for 9 days, a degree of progression of bone differentiation was examined by staining with an alkaline phosphatase (ALP) staining kit #85-3R (Sigma). Quantitative analysis of an ALP activity was conducted according to the Fujii et al. method (e.g., see Fujii M et al, “Mol Biol Cell.” published by American Society for Cell Biology (U.S.A.), 1999, vol. 10, p. 3801-3813] by using a Sigma Fast p-nitrophenyl phosphate tablet set. A protein concentration of each extract was measured by a DC protein assay (Bio-Rad) using a bovine serum albumin as a standard substance.

[2] = tested on: Human mesenchymal stem cells (hMSCs); experiment: Test Example 2: calcium accumulation of human mesenchymal stem cells by the von Kossa method; details: serum-free medium, compound A 1 μM with rhBMP-4 50 ng/ml
Procedure: (§1) Quantitative analysis of an ALP activity was conducted in the same manner as in Test Example 1. Accumulation of calcium was measured through visualization by the von Kossa method. That is, the respective cells were immobilized with a phosphate buffered saline (PBS) containing 3% glutaraldehyde, and washed with PBS and with distilled water. The immobilized cells were reacted with 2.5% silver nitrate for 60 minutes while applying light, then washed, and developed with 0.5% hydroquinone for 2 minutes. Excess silver was washed away with a 5% sodium thiosulfate solution.

C2C12 cells [3] = experiment: Test Example 4: influence of serum (FBS) concentration on ALP activity of C2C12 cells; details: compound A 1 μM, rhBMP-4 50 ng/ml, FBS 2.5%, 5%, 10% or 20%, 9 days
Procedure: After the respective cells were cultured for 9 days, a degree of progression of bone differentiation was examined by staining with an alkaline phosphatase (ALP) staining kit #85-3R (Sigma). […] Regarding the respective cells, the ALP activity was measured in the same manner as in Test Example 1.

[4] = tested on: Human mesenchymal stem cells (hMSCs); experiment: Test Example 2: ALP activity of human mesenchymal stem cells; details: serum-free medium, compound A 1 μM with rhBMP-4 50 ng/ml
Procedure: as §1, with “After the respective cells were cultured for 9 days, a degree of progression of bone differentiation was examined by staining with an alkaline phosphatase (ALP) staining kit #85-3R (Sigma). […] Quantitative” for “Quantitative”

NC(=O)c1ccc(-c2nc(-c3ccc4c(c3)OCO4)c(-c3ccccn3)[nH]2)cc1 [compound A, 4-(4-benzo[1,3]dioxol-5-yl-5-pyridin-2-yl-1H-imidazol-2-yl)benzamide] was tested, and the “activity of accelerating bone differentiation by stimulation of rhBMP-4 (ALP staining / ALP activity)” value (C2C12 cells [1]; compound A 1 μM with rhBMP-4 50 ng/ml, 5% fetal bovine serum) was “enhanced”, the “activity of accelerating bone differentiation of C2C12 cells (ALP staining)” value (C2C12 cells [1]; compound A (1 μM) alone, without rhBMP-4, 5% fetal bovine serum) was “not observed” and the “calcium accumulation induced with rhBMP-4 (von Kossa staining)” value [2] was “further enhanced”. For the same compound, the “activity to enhance the acceleration of osteogenesis (ALP staining / ALP activity) as a function of FBS concentration” value (C2C12 cells [3]) was “decreased with the increase in FBS concentration” and the “increase in ALP activity induced with rhBMP-4” value [4] was “further enhanced”.
